From ChEMBL document CHEMBL5346947, “Targeting the Estrogen Receptor for the Treatment of Breast Cancer: Recent Advances and Challenges” (J Med Chem, 2023)

Key:
MCF7 [1] = assay: Antitumor activity against human MCF7 cells xenograft model assessed as tumor growth inhibition at 90 mg/kg relative to control; type: functional; conditions: read-out: TGI
MCF7 [2] = assay: Antitumor activity against human MCF7 cells xenograft model assessed as tumor growth inhibition at 120 mg/kg relative to control; type: functional; conditions: read-out: TGI
MCF7 [3] = assay: Antitumor activity against human MCF7 cells xenograft model assessed as tumor growth inhibition at 60 mg/kg relative to control; type: functional; conditions: read-out: TGI
MCF7 [4] = assay: Antitumor activity against human MCF7 cells xenograft model assessed as tumor growth inhibition at 30 mg/kg relative to control; type: functional; conditions: read-out: TGI
[5] = Half life in Sprague-Dawley rat at 5 mg/kg, iv measured upto 24 hrs by LC-MS/MS analysis; type: ADME, organism-based; conditions: in vivo
[6] = Half life in cynomolgus monkey at 5 mg/kg, iv measured upto 24 hrs by LC-MS/MS analysis; type: ADME, organism-based, Macaca fascicularis; conditions: in vivo
[7] = Cmax in Sprague-Dawley rat at 10 mg/kg, po measured upto 24 hrs by LC-MS/MS analysis; type: ADME, organism-based; design: dose 10 mg/kg, time < 24 hrs, route po; conditions: in vivo
[8] = Oral bioavailability in cynomolgus monkey at 10 mg/kg measured upto 24 hrs by LC-MS/MS analysis; type: ADME, organism-based, Macaca fascicularis; conditions: in vivo
[9] = Volume of distribution at steady state in Sprague-Dawley rat at 5 mg/kg, iv measured upto 24 hrs by LC-MS/MS analysis; type: ADME, organism-based; conditions: in vivo, read-out: Vdss
[10] = Oral bioavailability in Sprague-Dawley rat at 10 mg/kg measured upto 24 hrs by LC-MS/MS analysis; type: ADME, organism-based; conditions: in vivo
[11] = Volume of distribution at steady state in cynomolgus monkey at 5 mg/kg, iv measured upto 24 hrs by LC-MS/MS analysis; type: ADME, organism-based, Macaca fascicularis; conditions: in vivo, read-out: Vdss
[12] = AUC in cynomolgus monkey at 10 mg/kg, po measured upto 24 hrs by LC-MS/MS analysis; type: ADME, organism-based, Macaca fascicularis; design: dose 10 mg/kg, time < 24 hrs, route po; conditions: in vivo
[13] = Clearance in cynomolgus monkey at 5 mg/kg, iv measured upto 24 hrs by LC-MS/MS analysis; type: ADME, organism-based, Macaca fascicularis; conditions: in vivo
[14] = Cmax in cynomolgus monkey at 10 mg/kg, po measured upto 24 hrs by LC-MS/MS analysis; type: ADME, organism-based, Macaca fascicularis; design: time < 24 hrs, dose 10 mg/kg, route po; conditions: in vivo
[15] = AUC in Sprague-Dawley rat at 10 mg/kg, po measured upto 24 hrs by LC-MS/MS analysis; type: ADME, organism-based; design: time < 24 hrs, dose 10 mg/kg, route po; conditions: in vivo
MCF7 [16] = assay: Growth inhibition of human MCF7 cells; type: functional
MCF7 [17] = assay: Antiproliferative activity against human MCF7 cells harboring wild type ERalpha assessed as inhibition of cell growth incubated for 6 to 7 days by high content imaging assay; type: functional, cell-based
MCF7 [18] = assay: Antiproliferative activity against human MCF7 cells harboring ERalpha Y537N mutant assessed as inhibition of cell growth incubated for 6 to 7 days by high content imaging assay; type: functional, cell-based
[19] = molecular target: T1, Progesterone receptor (Homo sapiens) (UniProt P06401); assay: Inhibition of PGR transcription in human MCF7 harboring ERalpha […] mutant measured upto 96 hrs by qPCR analysis relative to control; type: cell-based
T1 sequence (whole entry): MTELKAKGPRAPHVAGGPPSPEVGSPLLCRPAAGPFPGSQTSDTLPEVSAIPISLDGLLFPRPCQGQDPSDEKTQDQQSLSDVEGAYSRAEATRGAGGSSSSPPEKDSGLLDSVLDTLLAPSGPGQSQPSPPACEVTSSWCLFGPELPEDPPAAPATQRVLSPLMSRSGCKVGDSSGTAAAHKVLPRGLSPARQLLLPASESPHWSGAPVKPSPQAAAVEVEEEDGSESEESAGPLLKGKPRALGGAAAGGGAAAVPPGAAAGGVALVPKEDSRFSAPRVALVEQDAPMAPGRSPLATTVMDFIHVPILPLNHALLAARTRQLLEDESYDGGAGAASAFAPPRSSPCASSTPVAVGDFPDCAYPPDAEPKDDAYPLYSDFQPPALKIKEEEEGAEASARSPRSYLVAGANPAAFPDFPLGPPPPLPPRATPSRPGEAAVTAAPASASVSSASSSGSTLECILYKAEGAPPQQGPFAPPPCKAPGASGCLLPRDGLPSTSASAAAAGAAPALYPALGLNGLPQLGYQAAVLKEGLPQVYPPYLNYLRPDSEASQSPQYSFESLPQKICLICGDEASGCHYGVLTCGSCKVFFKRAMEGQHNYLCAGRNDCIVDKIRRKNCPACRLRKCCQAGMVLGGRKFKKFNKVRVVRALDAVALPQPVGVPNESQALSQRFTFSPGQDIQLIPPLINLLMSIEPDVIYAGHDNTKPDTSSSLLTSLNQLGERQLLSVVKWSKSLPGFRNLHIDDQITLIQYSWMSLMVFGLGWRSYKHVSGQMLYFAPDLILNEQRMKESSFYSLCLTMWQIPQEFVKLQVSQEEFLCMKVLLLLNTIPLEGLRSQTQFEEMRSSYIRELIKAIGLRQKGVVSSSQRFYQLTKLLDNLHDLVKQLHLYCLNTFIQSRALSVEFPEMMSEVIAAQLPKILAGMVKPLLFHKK

[20] = molecular target: T1, Progesterone receptor (Homo sapiens); assay: Inhibition of PGR transcription in human MCF7 harboring wild type ERalpha measured upto 96 hrs by qPCR analysis relative to control; type: cell-based
[21] = Antitumor activity in tamoxifen-resistant human MCF7 cells xenografted in 17beta-estradiol-treated NOD/SCID mouse model assessed as tumor growth inhibition at 60 mg/kg, po QD for 28 days relative to control; type: functional; conditions: tamoxifen-resistant MCF7 cell, 672 h, time 28 day, read-out: TGI
[22] = AUC (0-24hrs) in human MCF7 cells xenografted in 17beta-estradiol-treated NOD/SCID mouse model at 30 mg/kg, po and measured after 18 hrs post last dose; conditions: in vivo
[23] = Cmax in human MCF7 cells xenografted in 17beta-estradiol-treated NOD/SCID mouse model at 30 mg/kg, po and measured after 18 hrs post last dose; conditions: in vivo
MCF7 [24] = assay: animal or person; conditions: Mus musculus, MCF7, 18 h, read-out: TGI
Description: Antitumor activity in human MCF7 cells xenografted in 17beta-estradiol-treated NOD/SCID mouse model assessed as tumor growth inhibition at 30 mg/kg, sc and measured after 18 hrs post last dose

[25] = AUC (0-24hrs) in human MCF7 cells xenografted in 17beta-estradiol-treated NOD/SCID mouse model at 3 mg/kg, po and measured after 18 hrs post last dose; conditions: in vivo
[26] = Cmax in human MCF7 cells xenografted in 17beta-estradiol-treated NOD/SCID mouse model at 10 mg/kg, po and measured after 18 hrs post last dose; conditions: in vivo
MCF7 [27] = assay: animal or person; conditions: Mus musculus, MCF7, po, 672 h, read-out: TGI
Description: Antitumor activity in human MCF7 cells xenografted in 17beta-estradiol-treated NOD/SCID mouse model assessed as tumor growth inhibition at 30 mg/kg, po QD for 28 days in the presence of palbociclib at 60 mg/kg relative to control

[28] = molecular target: T2, Protein cereblon/Estrogen receptor (Homo sapiens) (UniProt P03372+Q96SW2); assay: Protac activity at E3 ubiquitin-protein ligase/ERalpha in human MCF7 cells xenografted in 17beta-estradiol-treated NOD/SCID mouse model assessed as reduction in ERalpha degradation at 30 mg/kg, po and measured after 18 hrs post last dose relative to control; design: scale not given: the % may be the effect or the level left
MCF7 [29] = assay: animal or person; conditions: Mus musculus, MCF7, 336 h, read-out: TGI
Description: Antitumor activity in human MCF7 cells xenografted in 17beta-estradiol-treated NOD/SCID mouse model assessed as tumor growth inhibition at 200 mg/kg, sc BIW for 2 weeks in the presence of palbociclib at 60 mg/kg relative to control

[30] = Cmax in human MCF7 cells xenografted in 17beta-estradiol-treated NOD/SCID mouse model at 3 mg/kg, po and measured after 18 hrs post last dose; conditions: in vivo
[31] = Antitumor activity in tamoxifen-resistant human MCF7 cells xenografted in 17beta-estradiol-treated NOD/SCID mouse model assessed as tumor growth inhibition at 30 mg/kg, po QD for 28 days in the presence of palbociclib at 60 mg/kg relative to control; type: functional; conditions: tamoxifen-resistant MCF7 cell, 672 h, time 28 day, read-out: TGI
[32] = AUC (0-24hrs) in human MCF7 cells xenografted in 17beta-estradiol-treated NOD/SCID mouse model at 10 mg/kg, po and measured after 18 hrs post last dose; conditions: in vivo
MCF7 [33] = assay: animal or person; conditions: Mus musculus, MCF7, po, 672 h, read-out: TGI; remark: listed apart in the source
Description: Antitumor activity in human MCF7 cells xenografted in 17beta-estradiol-treated NOD/SCID mouse model assessed as tumor growth inhibition at 30 mg/kg, po QD for 28 days relative to control

[34] = molecular target: T2, Protein cereblon/Estrogen receptor (Homo sapiens); assay: Protac activity at E3 ubiquitin-protein ligase/ERalpha in human MCF7 cells xenografted in 17beta-estradiol-treated NOD/SCID mouse model assessed as reduction in ERalpha degradation at 3 mg/kg and measured after 18 hrs post last dose relative to control; type: organism-based; design: scale not given: the % may be the effect or the level left
[35] = molecular target: T2, Protein cereblon/Estrogen receptor (Homo sapiens); assay: Protac activity at E3 ubiquitin-protein ligase/ERalpha in human MCF7 cells xenografted in 17beta-estradiol-treated NOD/SCID mouse model assessed as reduction in ERalpha degradation at 10 mg/kg, po and measured after 18 hrs post last dose relative to control; design: scale not given: the % may be the effect or the level left
[36] = Antitumor activity in tamoxifen-resistant human MCF7 cells xenografted in 17beta-estradiol-treated NOD/SCID mouse model assessed as tumor growth inhibition at 30 mg/kg, po QD for 28 days relative to control; type: functional; conditions: tamoxifen-resistant MCF7 cell, 672 h, time 28 day, read-out: TGI
MCF7 [37] = assay: animal or person; conditions: Mus musculus, MCF7, 18 h, read-out: TGI; remark: listed apart in the source
Description: Antitumor activity in human MCF7 cells xenografted in 17beta-estradiol-treated NOD/SCID mouse model assessed as tumor growth inhibition at 10 mg/kg, sc and measured after 18 hrs post last dose

T2 sequence (P03372 whole entry, looked up): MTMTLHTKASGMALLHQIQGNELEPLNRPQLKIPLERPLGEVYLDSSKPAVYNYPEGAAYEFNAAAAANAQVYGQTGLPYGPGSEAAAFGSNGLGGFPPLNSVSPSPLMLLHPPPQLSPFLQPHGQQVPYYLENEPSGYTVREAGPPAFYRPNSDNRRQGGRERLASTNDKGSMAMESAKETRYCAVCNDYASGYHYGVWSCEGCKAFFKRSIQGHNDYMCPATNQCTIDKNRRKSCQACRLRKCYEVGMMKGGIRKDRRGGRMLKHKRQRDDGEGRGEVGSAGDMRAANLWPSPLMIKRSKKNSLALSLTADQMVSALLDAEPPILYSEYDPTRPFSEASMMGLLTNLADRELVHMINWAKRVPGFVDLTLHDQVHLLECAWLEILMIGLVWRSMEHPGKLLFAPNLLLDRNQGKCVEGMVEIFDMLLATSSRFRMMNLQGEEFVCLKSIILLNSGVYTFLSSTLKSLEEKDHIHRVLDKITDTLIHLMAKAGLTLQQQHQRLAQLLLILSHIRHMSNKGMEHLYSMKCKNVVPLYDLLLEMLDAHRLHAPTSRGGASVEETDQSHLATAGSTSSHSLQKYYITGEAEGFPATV
T2 sequence (Q96SW2 whole entry, looked up): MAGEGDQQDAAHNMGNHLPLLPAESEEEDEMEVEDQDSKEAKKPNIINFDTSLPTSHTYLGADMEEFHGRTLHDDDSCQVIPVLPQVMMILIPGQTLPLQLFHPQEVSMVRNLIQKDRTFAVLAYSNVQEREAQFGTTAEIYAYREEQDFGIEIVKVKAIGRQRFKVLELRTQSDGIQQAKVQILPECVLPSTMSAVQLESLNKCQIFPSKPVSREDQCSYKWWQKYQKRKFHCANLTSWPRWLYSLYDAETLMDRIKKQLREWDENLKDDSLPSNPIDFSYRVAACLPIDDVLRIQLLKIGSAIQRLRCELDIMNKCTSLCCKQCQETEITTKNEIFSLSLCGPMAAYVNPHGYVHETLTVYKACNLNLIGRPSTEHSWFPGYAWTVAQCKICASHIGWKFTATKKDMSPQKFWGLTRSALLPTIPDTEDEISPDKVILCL

## CCNCCc1ccc(CN(CC)c2cc(OC)ccc2[C@@H]2CCc3cc(O)ccc3C2)cc1 [ELACESTRANT]
MCF7 [1]
  inhibition in vivo at 90 mg/kg: 97%
MCF7 [2]
  inhibition in vivo at 120 mg/kg: 96%
MCF7 [3]
  inhibition in vivo at 60 mg/kg: 88%
MCF7 [4]
  inhibition in vivo at 30 mg/kg: 66%

## CN(C)C(=O)/C=C/CNCCOc1ccc(/C(=C(/CC(F)(F)F)c2ccccc2)c2ccc3[nH]nc(F)c3c2)cn1 [H3B-6545 FREE BASE]
[5]
  half-life: 2.3 h
[6]
  half-life: 4 h
[7]
  Cmax: 1200 ng/mL
[8]
  bioavailability: 26%
[9]
  Vd: 1.2 L/kg
[10]
  F: 6.2%
[11]
  Vd: 3 L/kg
[12]
  AUC at 24 h: 2500 ng·h/mL
[13]
  clearance: 18.2 mL/min/kg
[14]
  Cmax: 420 ng/mL
[15]
  AUC: 14200 ng·h/mL
MCF7 [16]
  GI50: 0.3 nM

## Oc1ccc2c3c(cnc2c1)-c1ccc(C(F)(F)F)cc1O[C@@H]3c1ccc(OCCN2CC(CF)C2)cc1 [IMLUNESTRANT]
MCF7 [17]
  IC50: 3 nM
MCF7 [18]
  IC50: 17 nM
[19]
  inhibition: > 75%
[20]
  inhibition: > 75%

## CC(=O)c1c(C)c2cnc(Nc3ccc(N4CCNCC4)cn3)nc2n(C2CCCC2)c1=O [PALBOCICLIB]
[21]
  inhibition in vivo at 60 mg/kg: 91%

## O=C1CC[C@H](N2Cc3cc(N4CCN(CC5CCN(c6ccc([C@@H]7c8ccc(O)cc8CC[C@@H]7c7ccccc7)cc6)CC5)CC4)ccc3C2=O)C(=O)N1 [VEPDEGESTRANT]
[22]
  AUC(0-t) at 18 h: 5720 ng·h/mL
[23]
  Cmax: 962 ng/mL
MCF7 [24]
  inhibition in vivo at 30 mg/kg: 124%
[25]
  AUC(0-t) at 18 h: 658 ng·h/mL
[26]
  Cmax: 312 ng/mL
MCF7 [27]
  inhibition in vivo at 30 mg/kg: 131%
[28]
  Activity: 94%
MCF7 [29]
  inhibition in vivo at 200 mg/kg: 108%
[30]
  Cmax: 84 ng/mL
[31]
  inhibition in vivo at 30 mg/kg: 113%
[32]
  AUC(0-t) at 18 h: 2540 ng·h/mL
MCF7 [33]
  inhibition in vivo at 30 mg/kg: 105%
[34]
  Activity: 95%
[35]
  Activity: 97%
[36]
  inhibition in vivo at 30 mg/kg: 65%
MCF7 [37]
  inhibition in vivo at 10 mg/kg: 98%
